Experiments:
Type in all cases: biochemical
[1] = system: NAHA activity from Fusarium culmorum; assay: NAHA activity assay, Fusarium culmorum
Method: (§1) In order to determine NAHA activity in different samples, the technology in WO 98/033934 was employed: A sample containing a dried or freeze dried organism is added to a buffer solution containing 4-Methylumbelliferyl N-acetyl-β-D-glucosaminide in a concentration of 20 μM. The reaction-time is varied depending on the ambient temperature and according to a reaction-time/temperature data sheet previously developed for fungal NAHA activity at various temperatures, and is 30 minutes at 23° C. The resulting fluorescence formed during the reaction time is monitored in a calibrated fluorometer.
(§2) Experiments were conducted where varying concentrations of AgNO3 was added to an analysis substrate. Furthermore, the experiments where performed on dried or freeze dried materials where both intact and fragmented cells are to be expected to be present.
(§3) Experiments analogous to those in example 1 were carried out, but instead of using non-specific inhibitors, the effect of different concentrations of DNJNAc on the NAHA activity in various biomass containing samples was investigated.

[2] = system: NAHA activity from Mucor hiemalis; assay: NAHA activity assay, Mucor hiemalis
Method: as §1, §2, §3

[3] = system: NAHA activity from Stachybotrys chartarum; assay: NAHA activity assay, Stachybotrys chartarum
Method: as §1, §2, §3

[4] = system: NAHA activity from Aureobasidium pullulans; assay: NAHA activity assay, Aureobasidium pullulans
Method: as §1, §2, §3

[5] = system: NAHA activity from Rhizopus stolonifer; assay: NAHA activity assay, Rhizopus stolonifer
Method: as §1, §3

[6] = system: NAHA activity from Chaetomium globosum; assay: NAHA activity assay, Chaetomium globosum
Method: as §1, §3

[7] = system: NAHA activity from Aspergillus versicolor; assay: NAHA activity assay, Aspergillus versicolor
Method: as §1, §3

[8] = system: NAHA activity from Alternaria tenuissima; assay: NAHA activity assay, Alternaria tenuissima
Method: as §1, §3

[9] = system: NAHA activity from Trichoderma harzianum; assay: NAHA activity assay, Trichoderma harzianum
Method: as §1, §3

[10] = system: NAHA activity from Penicillium commune; assay: NAHA activity assay, Penicillium commune
Method: as §1, §3

[11] = system: NAHA activity from Aspergillus fumigatus; assay: NAHA activity assay, Aspergillus fumigatus (Table 4b, state not given)
Method: as §1, §3

non-fungal NAHA activity = assay: NAHA activity assay, non-fungal sources overall
Method: as §1, §2, §3

CC(=O)N[C@H]1CN[C@H](CO)[C@@H](O)[C@@H]1O [DNJNAc, 2-Acetamido-1,2-dideoxynojirimycin]
NAHA activity, 0 μM DNJNAc = 100% ([1]; DNJNAc 98 μM): 98% | NAHA activity, 0 μM DNJNAc = 100% ([1]; DNJNAc 196 μM): 95% | NAHA activity, 0 μM DNJNAc = 100% ([2]; DNJNAc 24.5 μM): 58% | NAHA activity, 0 μM DNJNAc = 100% ([2]; DNJNAc 49 μM): 37% | NAHA activity, 0 μM DNJNAc = 100% ([2]; DNJNAc 98 μM): 45% | NAHA activity, 0 μM DNJNAc = 100% ([2]; DNJNAc 196 μM): 25% | NAHA activity, 0 μM DNJNAc = 100% ([3]; DNJNAc 24.5 μM): 90% | NAHA activity, 0 μM DNJNAc = 100% ([3]; DNJNAc 98 μM): 97% | NAHA activity, 0 μM DNJNAc = 100% ([3]; DNJNAc 196 μM): 85% | NAHA activity, 0 μM DNJNAc = 100% ([4]; DNJNAc 24.5 μM): 56% | NAHA activity, 0 μM DNJNAc = 100% ([4]; DNJNAc 49 μM): 67% | NAHA activity, 0 μM DNJNAc = 100% ([4]; DNJNAc 98 μM): 50% | NAHA activity, 0 μM DNJNAc = 100% ([4]; DNJNAc 196 μM): 27% | NAHA activity, 0 μM DNJNAc = 100% ([5]; DNJNAc 24.5 μM): 46% | NAHA activity, 0 μM DNJNAc = 100% ([5]; DNJNAc 49 μM): 32% | NAHA activity, 0 μM DNJNAc = 100% ([5]; DNJNAc 98 μM): 23% | NAHA activity, 0 μM DNJNAc = 100% ([5]; DNJNAc 196 μM): 18% | NAHA activity, 0 μM DNJNAc = 100% ([6]; DNJNAc 24.5 μM): 88% | NAHA activity, 0 μM DNJNAc = 100% ([6]; DNJNAc 49 μM): 91% | NAHA activity, 0 μM DNJNAc = 100% ([6]; DNJNAc 98 μM): 92% | NAHA activity, 0 μM DNJNAc = 100% ([6]; DNJNAc 196 μM): 81% | NAHA activity, 0 μM DNJNAc = 100% ([7]; DNJNAc 24.5 μM): 92% | NAHA activity, 0 μM DNJNAc = 100% ([7]; DNJNAc 49 μM): 79% | NAHA activity, 0 μM DNJNAc = 100% ([7]; DNJNAc 98 μM): 71% | NAHA activity, 0 μM DNJNAc = 100% ([7]; DNJNAc 196 μM): 63% | NAHA activity, 0 μM DNJNAc = 100% ([8]; DNJNAc 24.5 μM): 72% | NAHA activity, 0 μM DNJNAc = 100% ([8]; DNJNAc 49 μM): 79% | NAHA activity, 0 μM DNJNAc = 100% ([8]; DNJNAc 98 μM): 58% | NAHA activity, 0 μM DNJNAc = 100% ([8]; DNJNAc 196 μM): 48% | NAHA activity, 0 μM DNJNAc = 100% ([9]; DNJNAc 24.5 μM): 120% | NAHA activity, 0 μM DNJNAc = 100% ([9]; DNJNAc 49 μM): 93% | NAHA activity, 0 μM DNJNAc = 100% ([9]; DNJNAc 98 μM): 92% | NAHA activity, 0 μM DNJNAc = 100% ([9]; DNJNAc 196 μM): 83% | NAHA activity, 0 μM DNJNAc = 100% ([10]; DNJNAc 24.5 μM): 76% | NAHA activity, 0 μM DNJNAc = 100% ([10]; DNJNAc 49 μM): 62% | NAHA activity, 0 μM DNJNAc = 100% ([10]; DNJNAc 98 μM): 45% | NAHA activity, 0 μM DNJNAc = 100% ([10]; DNJNAc 196 μM): 22% | NAHA activity, 0 μM DNJNAc = 100% ([11]; DNJNAc 24.5 μM): 122% | NAHA activity, 0 μM DNJNAc = 100% ([11]; DNJNAc 49 μM): 110% | NAHA activity, 0 μM DNJNAc = 100% ([11]; DNJNAc 98 μM): 89% | NAHA activity, 0 μM DNJNAc = 100% ([11]; DNJNAc 196 μM): 88% | non fungal activity retained, average (non-fungal NAHA activity; 24.5 μM in the assay substrate): 11% | non-fungal NAHA activity retained, average of the control (non-fungal NAHA activity; 196 μM): 5%
